Values joined by “and” are separate entries in the source; they are usually repeats but may differ in a detail not shown here. Identical values can stand only once. Active and inactive are the calls of the source. No rule for the calls is given here.
Tested on: rodent lifetime carcinogenesis bioassay, tumor incidence TD50
Experiment: carcinogenic potency in animals, long-term in vivo studies, CPDB compilation (AID 1745844)

`Cc1cc(C)nc(NS(=O)(=O)c2ccc(N)cc2)n1` showed a TD50 (mouse, strain B6C3F1, females, in feed, site: liver, lesion: hepatocellular adenoma, dosed 78 weeks, study length 78 weeks) of 2820 mg/kg/day, a TD50 (mouse, strain B6C3F1, females, in feed, site: liver, lesion: hepatocellular adenoma, dosed 104 weeks, study length 104 weeks) of 12300 mg/kg/day and a TD50 (mouse, strain B6C3F1, females, in feed, site: liver, lesion: hepatocellular carcinoma, dosed 104 weeks, study length 104 weeks) of 16500 mg/kg/day. For the same compound, the TD50 (mouse, strain B6C3F1, females, in feed, site: liver, lesion: several types, types named in the paper, dosed 104 weeks, study length 104 weeks) was 8740 mg/kg/day, the TD50 (mouse, strain B6C3F1, females, in feed, site: lung, lesion: alveolar/bronchiolar carcinoma, dosed 52 weeks, study length 52 weeks) was 3100 mg/kg/day and the TD50 (mouse, strain B6C3F1, females, in feed, site: lung, lesion: alveolar/bronchiolar carcinoma, dosed 104 weeks, study length 104 weeks) was 12700 mg/kg/day. It also gave a TD50 (mouse, strain B6C3F1, females, in feed, site: thyroid gland, lesion: follicular-cell adenoma, dosed 78 weeks, study length 78 weeks) of 618 mg/kg/day, a TD50 (mouse, strain B6C3F1, females, in feed, site: thyroid gland, lesion: follicular-cell adenoma, dosed 104 weeks, study length 104 weeks) of 2160 mg/kg/day and a TD50 (mouse, strain B6C3F1, females, in feed, site: thyroid gland, lesion: follicular-cell carcinoma, dosed 104 weeks, study length 104 weeks) of 54800 mg/kg/day. The TD50 (mouse, strain B6C3F1, females, in feed, site: thyroid gland, lesion: several types, types named in the paper, dosed 104 weeks, study length 104 weeks) was 2060 mg/kg/day, the TD50 (mouse, strain B6C3F1, males, in feed, site: liver, lesion: hepatocellular adenoma, dosed 104 weeks, study length 104 weeks) was 14900 mg/kg/day and the TD50 (mouse, strain B6C3F1, males, in feed, site: liver, lesion: several types, types named in the paper, dosed 104 weeks, study length 104 weeks) was 11700 mg/kg/day. For the same compound, the TD50 (mouse, strain B6C3F1, males, in feed, site: thyroid gland, lesion: follicular-cell adenoma, dosed 78 weeks, study length 78 weeks) was 3370 mg/kg/day, the TD50 (mouse, strain B6C3F1, males, in feed, site: thyroid gland, lesion: follicular-cell adenoma, dosed 104 weeks, study length 104 weeks) was 1220 mg/kg/day and the TD50 (mouse, strain B6C3F1, males, in feed, site: thyroid gland, lesion: follicular-cell carcinoma, dosed 104 weeks, study length 104 weeks) was 72100 mg/kg/day. It also gave a TD50 (mouse, strain B6C3F1, males, in feed, site: thyroid gland, lesion: several types, types named in the paper, dosed 104 weeks, study length 104 weeks) of 1190 mg/kg/day.
For `N[C@@H](CC(=O)O)C(=O)O`, the TD50 (rat, strain F344/DuCrj, females, in drinking water, site: any site (literature study), lesion: several types, types named in the paper, dosed 100 weeks, study length 100 weeks) was 8340 mg/kg/day (inactive), the carcinogen call (rat, strain F344/DuCrj, females, in drinking water, site: liver, lesion: one or several types, types not named, dosed 100 weeks, study length 100 weeks) was “negative (inactive)” and the TD50 (rat, strain F344/DuCrj, males, in drinking water, site: any site (literature study), lesion: several types, types named in the paper, dosed 100 weeks, study length 100 weeks) was 2720 mg/kg/day (inactive). For the same compound, the carcinogen call (rat, strain F344/DuCrj, males, in drinking water, site: liver, lesion: one or several types, types not named, dosed 100 weeks, study length 100 weeks) was “negative (inactive)”.
In the case of `Cc1cc(N)ccc1N`, the TD50 (mouse, strain B6C3F1, females, in feed, site: any site (literature study), lesion: several types, types named in the paper, dosed 78 weeks, study length 94 weeks) is reported as 33200 mg/kg/day, the TD50 (mouse, strain B6C3F1, females, in feed, site: liver, lesion: hepatocellular adenoma + hepatocellular carcinoma + neoplastic nodule, dosed 78 weeks, study length 94 weeks) is reported as 1960 mg/kg/day and the TD50 (mouse, strain B6C3F1, females, in feed, site: lung, lesion: alveolar/bronchiolar adenoma + alveolar/bronchiolar carcinoma, dosed 78 weeks, study length 94 weeks) is reported as 364 mg/kg/day (inactive) and 364 mg/kg/day. For the same compound, the TD50 (mouse, strain B6C3F1, males, in feed, site: any site (literature study), lesion: several types, types named in the paper, dosed 78 weeks, study length 94 weeks) was 272 mg/kg/day (inactive), the TD50 (mouse, strain B6C3F1, males, in feed, site: liver, lesion: hepatocellular adenoma + hepatocellular carcinoma + neoplastic nodule, dosed 78 weeks, study length 94 weeks) was 288 mg/kg/day and the TD50 (mouse, strain B6C3F1, males, in feed, site: lung, lesion: alveolar/bronchiolar adenoma + alveolar/bronchiolar carcinoma, dosed 78 weeks, study length 94 weeks) was 3560 mg/kg/day. The carcinogen call (rat, strain Fischer 344, females, in feed, site: any site (literature study), lesion: several types, types named in the paper, dosed 78 weeks, study length 107 weeks) was “negative (inactive)”, the carcinogen call (rat, strain Fischer 344, males, in feed, site: any site (literature study), lesion: several types, types named in the paper, dosed 78 weeks, study length 106 weeks) was “negative (inactive)” and the TD50 (rat, strain Fischer 344, males, in feed, site: liver, lesion: hepatocellular adenoma + hepatocellular carcinoma + neoplastic nodule, dosed 78 weeks, study length 106 weeks) was 233 mg/kg/day.
For `CC1CC(C)(C)CC(OOC(C)(C)C)(OOC(C)(C)C)C1` (stereo not given), the TD50 (mouse, strain B6C3F1, females, in feed, site: any site (literature study), lesion: malignant tumor, dosed 78 weeks, study length 83 weeks) was 9310 mg/kg/day (inactive), the TD50 (mouse, strain B6C3F1, females, in feed, site: any site (literature study), lesion: one or several types, types not named, dosed 78 weeks, study length 83 weeks) was 4230 mg/kg/day (inactive) and the carcinogen call (mouse, strain B6C3F1, females, in feed, site: liver, lesion: one or several types, types not named, dosed 78 weeks, study length 83 weeks) was “negative (inactive)”. For the same compound, the carcinogen call (mouse, strain B6C3F1, females, in feed, site: lung, lesion: alveolar/bronchiolar adenoma, dosed 78 weeks, study length 83 weeks) was “negative (inactive)”, the TD50 (mouse, strain B6C3F1, females, in feed, site: lung, lesion: alveolar/bronchiolar carcinoma, dosed 78 weeks, study length 83 weeks) was 19900 mg/kg/day (inactive) and the carcinogen call (mouse, strain B6C3F1, males, in feed, site: any site (literature study), lesion: malignant tumor, dosed 78 weeks, study length 83 weeks) was “negative (inactive)”. The TD50 (mouse, strain B6C3F1, males, in feed, site: any site (literature study), lesion: one or several types, types not named, dosed 78 weeks, study length 83 weeks) was 4980 mg/kg/day (inactive), the TD50 (mouse, strain B6C3F1, males, in feed, site: liver, lesion: hepatocellular adenoma, dosed 78 weeks, study length 83 weeks) was 1490 mg/kg/day (inactive) and the carcinogen call (mouse, strain B6C3F1, males, in feed, site: liver, lesion: hepatocellular carcinoma, dosed 78 weeks, study length 83 weeks) was “negative (inactive)”. For the same compound, the TD50 (mouse, strain B6C3F1, males, in feed, site: lung, lesion: alveolar/bronchiolar adenoma, dosed 78 weeks, study length 83 weeks) was 7.6e+09 mg/kg/day (inactive) and the carcinogen call (mouse, strain B6C3F1, males, in feed, site: lung, lesion: alveolar/bronchiolar carcinoma, dosed 78 weeks, study length 83 weeks) was “negative (inactive)”.
